The source of these data is patent publication US9134327B2, “STAT3 and TYK2 as drug targets for neurodegenerative diseases” (Biotechnology Research Corporation Limited, priority 2008, dated 2015).

One test concerns STAT3 (P-Tyr, Tyr705). The test is described as follows: Tyrosine phosphorylation of STAT3 in cortical neurons, immunoblot. The class given is cell-based, rat. Particulars: for inhibition of Aβ-induced tyrosine phosphorylation of STAT3: primary cortical neurons pretreated with inhibitor 2 hrs, then Aβ25-35 for 4 hrs or 24 hrs. As for the experimental part:
FIG. 2: Tyrosine phosphorylation of STAT3 is increased in cultured cortical neurons stimulated with Aβ25-35. Primary cortical neurons at 7 DIV were treated with Aβ25-35 (40 μM; H2O served as solvent control) for various times as indicated. Cell lysates were collected and subjected to immunoblotting using P-Tyr STAT3 and total STAT3 antibodies.
(§1) FIG. 4: Tyk2 is required for beta-amyloid peptide-induced tyrosine phosphorylation of STAT3 and neuronal cell death. A. Primary cortical neurons were pretreated with various inhibitors including a potent inhibitor of JAK (JAK inhibitor 1), a JAK2 inhibitor (AG490), a Src tyrosine kinase inhibitor (PP2) and a protein synthesis inhibitor (cycloheximide) for 2 hrs as indicated, followed by treatment with Aβ25-35 peptide for 4 hrs or 24 rs. The cell lysates were immunoblotted with P-Tyr STAT3 and total STAT3 antibody. B. Primary cortical neurons were treated with Aβ25-35. The cell lysates were immunoprecipitated using Tyk2 or JAK2 antibody, and then subjected to Western blot analysis for phospho-tyrosine (P-Tyr) antibody. C. Primary cortical neurons prepared from Tyk2^−/− mice were treated with Aβ25-35. The cell lysates were subjected to immunoblotting using P-Tyr STAT3, total STAT3 and caspase-3 antibody. Quantification analysis of fold change in tyrosine phosphorylated STAT3 and cleaved caspase-3 (bottom panels).
Cultured rat cortical neurons were used as a cell culture model to investigate the role of STAT3 tyrosine phosphorylation in AD. The cortical neurons (7 DIV) were treated with Aβ peptide 25-35.
Since Aβ induced tyrosine phosphorylation of STAT3, the next aim was to identify the upstream regulators of STAT3. Cortical neurons were pre-treated with different inhibitors prior to […] treatment. […] Cortical neurons were treated with Aβ peptide for 1 hr. Endogenous Tyk2 or JAK2 were immunoprecipitated by specific antibodies, and the precipitates were detected by monoclonal phospho-tyrosine antibody, 4G10.
Preparation of Brain Extracts, Cell Extracts, and Western Blots: Four Brain Parts including cortex, hippocampus, cerebellum and striatum were dissected from transgenic mice of various stages (from 2 months to 18 months) and kept on dry ice. Frozen brain tissues were homogenized in homogenizing buffer (25 mM Tris-HCl, pH 7.4, 150 mM NaCl, 1 mM EDTA, pH 7.4, 50 mM NaF) with various protease inhibitors. The supernatant was kept for Western Blotting and the pellets were reextracted using RIPA lysis buffer (150 mM NaCl, 1% (v/v) Nonidet P-40, 0.5% deoxycholic acid, 0.1% (w/v) SDS) containing various protease inhibitors (2 μg/ml aprotinin, 1 mM phenylmethylsulfonyl fluoride, 5 mM benzamidine, 1 mM sodium orthovanadate (NaOV), and 10 μg/ml soybean trypsin inhibitor). Primary cultured cortical neurons or PC12 cells were harvested and lysed in RIPA lysis buffer containing protease inhibitors.
A general note: Immunoblotting shows a protein as a band on a membrane.

In a further test the test system is iNOS gene expression. Kind of test: iNOS mRNA in primary cortical neurons, real-time PCR. The class given is cell-based. As for the experimental part: (§2) FIG. 5: Transcription activity of STAT3 in PC12 cells and iNOS RNA in cultured cortical neurons increases upon stimulation with Aβ25-35. A. PC12 cells were transfected with a STAT1 (pGAS-Luc) or STAT3 (pSTAT3-Luc) reporter gene construct together with an internal control plasmid (β-galactosidase-pCMV). The cells were differentiated by NGF for 4 days, and were then treated with Aβ25-35 or NGF (positive control) for 1 day. Luciferase activity was measured and normalized against the β-galactosidase activity in the samples. Results were normalized with β-galactosidase activity; mean±S.E., n=3; *, p<0.05. B. Primary cortical neurons at 7 DIV were pretreated with STAT3 inhibitor or JAK inhibitor I for 30 minutes, followed by Aβ25-35 (40 μM) treatment for 6 hours. Total RNA was collected and subjected to reverse transcription. The cDNA was then subjected to real-time PCR analysis using iNOS primers.
Primary cortical neurons were treated with Aβ peptide for 6 hr. […]
Quantitative RT-PCR: Total RNA was isolated from Aβ-treated cortical neurons using RNeasy mini kit (Qiagen) according to the manufacturer's instruction. […] Quantitative PCR was performed with specific primers targeting specific genes using Bio-Rad MX3000P real-time PCR system.

A further test has as its system STAT3. The test is described as follows: STAT3 luciferase reporter (pSTAT3-Luc) in PC12 cells. The test is classed as cell-based. The conditions noted are these: PC12 cells differentiated by NGF 4 days, treated 1 day. As for the experimental part: as §2
(§3) To further characterize if Aβ peptide effects STAT3 transcriptional activity, PC12 cells were transfected with a luciferase construct linked to the STAT3-response enhancer element (pSTAT3-Luc). The luciferase construct linked to the STAT1-response enhancer element (pGAS-Luc) was used as a control.

Another test has as its system Tyk2. Kind of test: Tyk2 tyrosine phosphorylation in cortical neurons, immunoprecipitation and phospho-tyrosine blot. The class given is cell-based. The conditions noted are these: cortical neurons treated 1 hr; IP Tyk2, 4G10 blot.
Text: as §1
Since Aβ induced tyrosine phosphorylation of STAT3, the next aim was to identify the upstream regulators of STAT3. Cortical neurons were pre-treated with different inhibitors prior to iv treatment. […] Endogenous Tyk2 or JAK2 were immunoprecipitated by specific antibodies, and the precipitates were detected by monoclonal phospho-tyrosine antibody, 4G10.

The test system of the next test is STAT1. The test is described as follows: STAT1 luciferase reporter (pGAS-Luc) in PC12 cells. The class given is cell-based. The conditions noted are these: PC12 cells differentiated by NGF 4 days, treated 1 day. As for the experimental part: as §2, §3

For `N#C/C(=C/c1ccc(O)c(O)c1)C(=O)NCc1ccccc1` [AG490], the “inhibition of Aβ-induced tyrosine phosphorylation of STAT3” value (shortened to “inhibition”) with STAT3 (P-Tyr, Tyr705) is listed as “did not exhibit similar inhibitory effects”.

On to `CC(C)(C)c1nc2c3cc[nH]c(=O)c3c3cc(F)ccc3c2[nH]1` [JAK inhibitor 1], for which the “block of Aβ-induced increase in iNOS gene expression” value in the test on iNOS gene expression (primary cortical neurons 7 DIV, 30 minutes pretreatment, then Aβ25-35 40 μM for 6 hours) is on record as “blocked”. The “inhibition” value with STAT3 (P-Tyr, Tyr705) was “completely inhibited”.

On to `CC(C)(C)n1nc(-c2ccc(Cl)cc2)c2c(N)ncnc21` [PP2], for which the “inhibition” value with STAT3 (P-Tyr, Tyr705) is on record as “neither the Src kinase inhibitor PP2 nor the protein synthesis inhibitor cycloheximide affected”.

As for `C[C@@H]1C[C@@H]([C@H](O)CC2CC(=O)NC(=O)C2)C(=O)[C@@H](C)C1` [cycloheximide], the “inhibition” value in the test with STAT3 (P-Tyr, Tyr705) was “neither the Src kinase inhibitor PP2 nor the protein synthesis inhibitor cycloheximide affected”.

On to “Aβ peptide 25-35: β-amyloid peptide fragment 25-35 used to stimulate neurons and PC12 cells (GSNKGAIIGLM; Amyloid-beta protein 42; UniProt P05067 696-706, looked up, fragment)”, for which the “STAT3 promoter activity (pSTAT3-Luc luciferase)” value in the test on STAT3 is “only induced the STAT3 promoter activity”. The “Tyk2 tyrosine phosphorylation after treatment” value with Tyk2 is listed as “could be detected”. Besides, the “STAT1 promoter activity (pGAS-Luc luciferase)” value in the test with STAT1 was “only induced the STAT3 promoter activity”. Besides, the “iNOS gene expression level after treatment” value in the test with iNOS gene expression (primary cortical neurons, 6 hr treatment) is “increased”. Besides, the “tyrosine phosphorylation of STAT3 induced by treatment” value in the test with STAT3 (P-Tyr, Tyr705) (cortical neurons 7 DIV, Aβ25-35 40 μM, up to 4 hrs) is listed as “significant increase in tyrosine phosphorylation of STAT3”.

B1: NGF: growth factor used to differentiate PC12 cells; positive control in the reporter assay (protein, UniProt P25427 122-241, looked up)
Beta-nerve growth factor: SSTHPVFHMGEFSVCDSVSVWVGDKTTATDIKGKEVTVLGEVNINNSVFKQYFFETKCRAPNPVESGCRGIDSKHWNSYCTTTHTFVKALTTDDKQAAWRFIRIDTACVCVLSRKAARRG
As for B1, the “STAT3 promoter activity (pSTAT3-Luc luciferase)” value with STAT3 is “induced the promoter activity of both STAT3 and STAT1”. Moreover, in the test on STAT1, the “STAT1 promoter activity (pGAS-Luc luciferase)” value is “induced the promoter activity of both STAT3 and STAT1”.
